Reference: patent US10442796B2, “2,3,5-substituted thiophene compound as protein kinase inhibitor” (KOREA INSTITUTE OF SCIENCE AND TECHNOLOGY, priority 2016, dated 2019)
Positions count from the first letter of the chain named. Structures can show the parent of a compound that is named as a salt.

How the values were obtained:
[1] = target: T1, FLT3-ITD-F691L Ba/F3 cells (Homo sapiens, UniProt P36888, F691L, cells depend on it, form not given); assay: Growth inhibitory activity against Ba/F3 cell line; type: cell-based; settings: Ba/F3 expressing FLT3-ITD-F691L; 72 hours; cell titer glo; read-out: IC50 (uM) FLT3-ITD-F691L
T1 sequence (P36888 1-993 F691L): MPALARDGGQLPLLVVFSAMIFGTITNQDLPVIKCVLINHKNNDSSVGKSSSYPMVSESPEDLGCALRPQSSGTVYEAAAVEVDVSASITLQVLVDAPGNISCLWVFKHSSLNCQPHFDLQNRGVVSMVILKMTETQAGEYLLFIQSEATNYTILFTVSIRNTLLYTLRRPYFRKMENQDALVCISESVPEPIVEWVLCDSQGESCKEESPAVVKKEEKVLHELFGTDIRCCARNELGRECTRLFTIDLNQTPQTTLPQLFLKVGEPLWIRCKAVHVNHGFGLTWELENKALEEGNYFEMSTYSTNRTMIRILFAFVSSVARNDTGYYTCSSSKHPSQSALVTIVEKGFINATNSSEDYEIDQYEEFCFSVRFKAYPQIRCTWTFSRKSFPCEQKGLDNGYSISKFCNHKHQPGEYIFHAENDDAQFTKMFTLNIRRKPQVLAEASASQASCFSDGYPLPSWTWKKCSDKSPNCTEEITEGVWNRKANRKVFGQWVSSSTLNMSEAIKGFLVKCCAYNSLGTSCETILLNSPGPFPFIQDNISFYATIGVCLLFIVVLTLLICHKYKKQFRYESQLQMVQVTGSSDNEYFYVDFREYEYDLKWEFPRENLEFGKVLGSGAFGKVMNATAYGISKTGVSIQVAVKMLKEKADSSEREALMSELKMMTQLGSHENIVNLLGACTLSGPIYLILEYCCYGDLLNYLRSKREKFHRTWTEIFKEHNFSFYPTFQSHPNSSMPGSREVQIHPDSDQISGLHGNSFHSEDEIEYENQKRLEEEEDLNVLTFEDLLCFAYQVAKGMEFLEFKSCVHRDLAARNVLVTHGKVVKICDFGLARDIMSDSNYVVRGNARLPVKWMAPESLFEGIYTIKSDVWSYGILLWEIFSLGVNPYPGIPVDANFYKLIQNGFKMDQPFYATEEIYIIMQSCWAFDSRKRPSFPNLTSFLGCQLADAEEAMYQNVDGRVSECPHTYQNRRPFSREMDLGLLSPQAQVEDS
Experimental: (§1) A Ba/F3 cell line expressing an FLT3 mutation gene was cultured in a culture solution including 90% RPMI, 10% FBS, and an antibiotic (Welgene). 100 uL of the Ba/F3 cell line was put into each of 5,000 wells of a TC-treated 96 well plate (SPL), and then 1 uL of a test compound diluted in dimethylsulfoxide (diluted for each 3 paint from a concentration of 1 mM, total 10 concentrations) was each injected thereinto. Thereafter, the resulting cell lines were incubated in a cell culture incubator for 72 hours. 50 uL of a cell titer glo (Promega) solution was added thereto, the resulting mixture was stored at room temperature for 10 minutes, and then the light emission intensity was measured by using a reader (Envision, PerkinElmer). The light emission intensity was shown as a graph for each final concentration of the test compound, and the GI50 value was obtained by using a Prism 5.0 (GraphPad) software.

[2] = target: T2, FLT3-ITD-F691L-D835Y Ba/F3 cells (Homo sapiens, UniProt P36888, F691L/D835Y, cells depend on it, form not given); assay: Growth inhibitory activity against Ba/F3 cell line; type: cell-based; settings: Ba/F3 expressing FLT3-ITD-F691L-D835Y; 72 hours; cell titer glo; read-out: IC50 (uM) FLT3-ITD-F691L-D835Y
T2 sequence (P36888 1-993 F691L/D835Y): T1 sequence (P36888 1-993 F691L) with D835Y
Experimental: as §1

| GI50 [1] | GI50 [2] | Structure (SMILES) |
| --- | --- | --- |
| 0.216 µM | 0.009 µM | Cn1cc(C#Cc2cc(NC(N)=O)c(C(=O)N[C@H]3CCCNC3)s2)cn1 [Example 15, (S)-5-((l-methyl-1H-pyrazol-4-yl)ethynyl)-N-(piperidin-3-yl)-3-ureidothiophene-2-carboxamide trifluoroacetate] |
| 0.848 µM | 0.079 µM | NC(=O)Nc1cc(C#Cc2cccc(F)c2)sc1C(=O)NC1CCNC1 (centres unmarked) [Example 40, 5-((3-fluorophenyl)ethynyl)-N-(pyrrolidin-3-yl)-3-ureidothiophene-2-carboxamide] |
| 0.174 µM | 0.006 µM | NC(=O)Nc1cc(C#Cc2cccc(F)c2)sc1C(=O)N[C@H]1CCCCNC1 [Example 50, (S)—N-(azepan-3-yl)-5-((3-fluorophenyl)ethynyl)-3-ureidothiophene-2-carboxamide] |
| 5.23 µM | 0.116 µM | NC(=O)Nc1cc(C#Cc2cn[nH]c2)sc1C(=O)N[C@H]1CCCCNC1 [Example 42, (S)-5-((1H-pyrazol-4-yl)ethynyl)-N-(azepan-3-yl)-3-ureidothiophene-2-carboxamide trifluoroacetate] |
| 0.058 µM | 0.002 µM | Cc1ccc(C#Cc2cc(NC(N)=O)c(C(=O)N[C@H]3CCCNC3)s2)cc1 [Example 24, (S)—N-(piperidin-3-yl)-5-(p-tolylethynyl)-3-ureidothiophene-2-carboxamide] |
| 7.47 µM | 1.02 µM | NC(=O)Nc1cc(CCc2cccc(F)c2)sc1C(=O)N[C@H]1CCCCNC1 [Example 54, (S)—N-(azepan-3-yl)-5-(3-fluorophenethyl)-3-ureidothiophene-2-carboxamide] |
| 0.023 µM | < 0.001 µM | COC(=O)c1ccc(C#Cc2cc(NC(N)=O)c(C(=O)N[C@H]3CCCNC3)s2)cc1 [Example 18, methyl (S)-4-((5-(piperidin-3-ylcarbamoyl)-4-ureidothiophen-2-yl)ethynyl)benzoate trifluoroacetate] |
| 1.34 µM | 0.019 µM | COCCn1cc(C#Cc2cc(NC(N)=O)c(C(=O)N[C@H]3CCCCNC3)s2)cn1 [Example 45, (S)—N-(azepan-3-yl)-5-((1-(2-methoxyethyl)-1H-pyrazol-4-yl)ethynyl)-3-ureidothiophene-2-carboxamide trifluoroacetate] |
| 0.2 µM | 0.006 µM | CCn1cc(C#Cc2cc(NC(N)=O)c(C(=O)N[C@H]3CCCCNC3)s2)cn1 [Example 43, (S)—N-(azepan-3-yl)-5-((l-ethyl-1H-pyrazol-4-yl)ethynyl)-3-ureidothiophene-2-carboxamide trifluoroacetate] |
| 0.267 µM | 0.02 µM | CS(=O)(=O)N1CCC(n2cc(C#Cc3cc(NC(N)=O)c(C(=O)N[C@H]4CCCNC4)s3)cn2)CC1 [Example 23, (S)-5-((1-(1-(methylsulfonyl)piperidin-4-yl)-1H-pyrazol-4-yl)ethynyl)-N-(piperidin-3-yl)-3-ureidothiophene-2-carboxamide] |
| 0.335 µM | 0.004 µM | NC(=O)Nc1cc(C#Cc2ccc(C(F)(F)F)cc2)sc1C(=O)N[C@H]1CCCNC1 [Example 16, ((S)—N-(piperidin-3-yl)-5-((4-(trifluoromethyl)phenyl)ethynyl)-3-ureidothiophene-2-carboxamide trifluoroacetate] |
| 19.1 µM | 1.24 µM | Cn1cc(C#Cc2cc(NC(N)=O)c(C(=O)NC3CCNC3)s2)cn1 (centres unmarked) [Example 39, 5-((1-methyl-1H-pyrazol-4-yl)ethynyl)-N-(pyrrolidin-3-yl)-3-ureidothiophene-2-carboxamide trifluoroacetate] |
| 0.069 µM | < 0.004 µM | NC(=O)Nc1cc(C#Cc2ccc(C(F)(F)F)nc2)sc1C(=O)N[C@H]1CCCNC1 [Example 17, (S)—N-(piperidin-3-yl)-5-((6-(trifluoromethyl)pyridin-3-yl)ethynyl)-3-ureidothiophene-2-carboxamide] |

Further lines, the molecule ahead of its results:

| Structure (SMILES) | GI50 [1] | GI50 [2] |
| --- | --- | --- |
| NC(=O)Nc1cc(C#Cc2ccccc2)sc1C(=O)N[C@H]1CCCNC1 [Example 2, (S)-5-(phenylethynyl)-N-(piperidin-3-yl)-3-ureidothiophene-2-carboxamide] | 0.004 µM | < 0.001 µM |
| NC(=O)Nc1cc(C#Cc2ccc(F)c(F)c2)sc1C(=O)N[C@H]1CCCNC1 [Example 14, (S)-5-((3,4-difluorophenyl)ethynyl)-N-(piperidin-3-yl)-3-ureidothiophene-2-carboxamide] | 0.009 µM | < 0.001 µM |
| NC(=O)Nc1cc(C#Cc2cccc([N+](=O)[O-])c2)sc1C(=O)N[C@H]1CCCNC1 [Example 5, (S)-5-((3-nitrophenyl)ethynyl)-N-(piperidin-3-yl)-3-ureidothiophene-2-carboxamide] | 0.062 µM | < 0.004 µM |
| NC(=O)Nc1cc(C#Cc2ccc(Cl)cc2)sc1C(=O)N[C@H]1CCCNC1 [Example 8, (S)-5-((4-chlorophenyl)ethynyl)-N-(piperidin-3-yl)-3-ureidothiophene-2-carboxamide] | 0.013 µM | < 0.001 µM |
| N#Cc1cccc(C#Cc2cc(NC(N)=O)c(C(=O)N[C@H]3CCCNC3)s2)c1 [Example 6, (S)-5-((3-cyanophenyl)ethynyl)-N-(piperidin-3-yl)-3-ureidothiophene-2-carboxamide] | 0.055 µM | < 0.004 µM |
| NC(=O)Nc1cc(C#Cc2cccnc2)sc1C(=O)N[C@H]1CCCNC1 [Example 3, (S)—N-(piperidin-3-yl)-5-(pyridin-3-ylethynyl)-3-ureidothiophene-2-carboxamide] | 0.099 µM | < 0.004 µM |
| NC(=O)Nc1cc(C#Cc2n[nH]c3ccccc23)sc1C(=O)N[C@H]1CCCNC1 [Example 12, (S)-5-((1H-indazol-3-yl)ethynyl)-N-(piperidin-3-yl)-3-ureidothiophene-2-carboxamide] | 0.487 µM | 0.027 µM |
| NC(=O)Nc1cc(C#Cc2ccccn2)sc1C(=O)N[C@H]1CCCNC1 [Example 10, (S)—N-(piperidin-3-yl)-5-(pyridin-2-ylethynyl)-3-ureidothiophene-2-carboxamide] | 0.066 µM | 0.004 µM |
| NC(=O)Nc1cc(C#Cc2ccc(F)nc2)sc1C(=O)N[C@H]1CCCNC1 [Example 13, (S)-5-((6-fluoropyridin-3-yl)ethynyl)-N-(piperidin-3-yl)-3-ureidothiophene-2-carboxamide] | 0.022 µM | 0.004 µM |
